Several values for one entry are separate records, joined by “and”; a condition that tells them apart may be missing. Identical values can stand only once. Like-named read-outs stand apart in the source and are kept apart here. Each block holds one compound with its values, some of them ahead of it.
Assays:
[1] = target: T1, Hsp90 alpha (Homo sapiens, UniProt P07900); assay: Fluorescence polarization competitive displacement of GM-BODIPY from Hsp90; type: binding; conditions: ratio of EC50 values
T1 construct: purchased Stressgen SPP776
Text: The method comprises the steps of: • (a) combining the candidate molecule with Hsp90 in the presence of a fluorescently-labeled molecule known to bind to Hsp90; • (b) exciting the fluorescent label using polarized light to produce a fluorescent emission; • (c) observing the degree of polarization of the fluorescent emission; and • (d) comparing the degree of polarization determined in step (c) to a standard value determined for the fluorescently labeled molecule when it is bound to Hsp90. When the fluorescently-labeled molecule is bound to the Hsp90, the emission is substantially polarized. On the other hand, when the fluorescently-labeled molecule has been wholly or partially displaced by candidate molecule, the extent to which the emission is polarized decreases as a result of the rotational freedom of the unbound fluorescently labeled species.
Maximum concentration of used DMSO was 0.25% (v/v). The plate was left on a shaker at 4° C. for 5 h and the FP values in mP were recorded.
Ad-But was again used as a control.
A mixture of 30 nM Hsp90 alpha, 30 nM Hsp90 beta or 200 nM Grp94-His, respectively with 5 nM GM BODIPY was added and the plate incubated at 4EC for 7 h. Specific ligand binding was plotted against the log10 inhibitor concentration and EC50 values calculated using a non linear least square curve fitting program in Prism 4.0.

[2] = tested on: Her2 in SKBr3 cells; assay: Her2-blot (whole-cell immunoassay of Her2 degradation); type: cell-based, human
Procedure: The human cancer cell lines SKBr3 and A431 were obtained from the American Type Culture Collection (Manassas, Va.) and maintained in 1:1 mixture of DME:F12 supplemented with 2 mM glutamine, 50 units/mL penicillin, 50 units/mL streptomycin and 5% heat inactivated fetal bovine serum (FBS) (Gemini Bioproducts) and incubated at 37° C. in 5% CO2. Stock culture was grown in T-175 flasks containing 30 mL of DME (HG, F-12, non-essential amino acids, and penicillin and streptomycin), with glutamine, and 10% FBS. Cells were dissociated with 0.05% trypsin and 0.02% EDTA in phosphate buffer saline (PBS) without calcium and magnesium. Experimental cultures of SKBr3 were plated in black, clear-bottom microtiter plates (Corning # 3603) (3,000 cells per well) in growth medium ([…]), and allowed to attach for at least 48 h at 37° C. and 5% CO2. Some wells were left without cells to serve as the blank. Growth medium (100 μL) with drug or vehicle (DMSO) was carefully added to the wells and the microtiter plates were placed at 37° C. and 5% CO2. […] Following incubation (6 h or 24 h), wells were washed twice with ice-cold tris buffer saline (TBS) containing 0.1% Tween20 (TBST) (200 μL). A house vacuum source attached to an 8-channel aspirator was used to remove the liquid from the microplates. Further, methanol (100 μL at −20° C.) was added to each well and the plate was left at 4° C. for 10 min. Methanol was removed by washing with TBST (2×200 μL). The plate was further incubated at RT for 1 h with SuperBlock® (Pierce # 37535) (200 μL) and overnight at 4° C. with the anti-Her-2 antibody (Santa Cruz Biotechnology # SC-284) ([…], 1:200 in SuperBlock®). Each well was washed with TBST (2×200 μL) and incubated at RT for 2 h with an anti-rabbit HRP-linked antibody (Sigma # A0545) (100 μL, 1:1000 in SuperBlock®). […] The plate was read 5 min later in an Analyst AD plate reader (Molecular Devices). […] Readings from wells containing only control IgG and the corresponding HRP-linked secondary antibody were set as background and deducted from all measured values. […]

[3] = tested on: tumor hsp90 versus normal tissue Hsp90; assay: Fluorescence polarization assay with tumor cell and normal tissue lysates; type: binding; conditions: FIG. 11 and FIG. 22C
Procedure: For use in the assay of the invention, cell lysates are made using the following protocol • collect cells • adherent cells: trypsinize (or scrape), harvest cells in 15 ml conical tubes and centrifuge at 1,600 RPM for 5 minutes at 2 to 8 C • (use confluent T-175 flask to obtain 0.5 ml of lysate) • floating cells: pellet cells by centrifugation 1600 rpm for 5 minutes at 2 to 8 C • wash 2× with 5 ml of PBS buffer • resuspend the pellet in 1 ml of PBS buffer and transfer cells to an eppendorf tube • centrifuge, aspirate supernatant, and freeze the pellet O/N at −70° C. • resuspend in lysis buffer B (Felts buffer) (1×10^6 cells per 100 l of buffer B) • incubate on the rotor for 2 hours at 2 to 8° C. • centrifuge the samples at 13,200 RPM for 30 min at 2 to 8° C. • transfer the supernatant to a fresh tube • quantitate protein concentration with the Pierce BCA assay • add 0.5 uL of 1M DTT/mL lysate • store samples at −70 C; before conducting an experiment thaw samples on ice and keep samples on ice throughout the course of experiment.
Cellular lysates were prepared in this manner from normal brain tissue, CML cell line K562 and breast cancer cell line SKBr3. For constructing a saturation curve, 5 nM GM BODIPY was added to the lysate, and the fluorescence polarization assay of the invention was performed. […]
The assay is stable and results in reproducible data (6-24 h readings presented). […]

[4] = target: Hsp90 beta (Homo sapiens, UniProt P08238); assay: Fluorescence polarization competitive displacement of GM-BODIPY, Hsp90 beta; type: binding; conditions: 30 nM Hsp90 beta, 5 nM GM BODIPY, 7 h
Text: Specific ligand binding was plotted against the log10 inhibitor concentration and EC50 values calculated using a non linear least square curve fitting program in Prism 4.0.

[5] = Homo sapiens, SK-BR-3, Her2-blot, read-out: IC50 for Her2 degradation

Chain of Hsp90 beta (P08238 whole entry): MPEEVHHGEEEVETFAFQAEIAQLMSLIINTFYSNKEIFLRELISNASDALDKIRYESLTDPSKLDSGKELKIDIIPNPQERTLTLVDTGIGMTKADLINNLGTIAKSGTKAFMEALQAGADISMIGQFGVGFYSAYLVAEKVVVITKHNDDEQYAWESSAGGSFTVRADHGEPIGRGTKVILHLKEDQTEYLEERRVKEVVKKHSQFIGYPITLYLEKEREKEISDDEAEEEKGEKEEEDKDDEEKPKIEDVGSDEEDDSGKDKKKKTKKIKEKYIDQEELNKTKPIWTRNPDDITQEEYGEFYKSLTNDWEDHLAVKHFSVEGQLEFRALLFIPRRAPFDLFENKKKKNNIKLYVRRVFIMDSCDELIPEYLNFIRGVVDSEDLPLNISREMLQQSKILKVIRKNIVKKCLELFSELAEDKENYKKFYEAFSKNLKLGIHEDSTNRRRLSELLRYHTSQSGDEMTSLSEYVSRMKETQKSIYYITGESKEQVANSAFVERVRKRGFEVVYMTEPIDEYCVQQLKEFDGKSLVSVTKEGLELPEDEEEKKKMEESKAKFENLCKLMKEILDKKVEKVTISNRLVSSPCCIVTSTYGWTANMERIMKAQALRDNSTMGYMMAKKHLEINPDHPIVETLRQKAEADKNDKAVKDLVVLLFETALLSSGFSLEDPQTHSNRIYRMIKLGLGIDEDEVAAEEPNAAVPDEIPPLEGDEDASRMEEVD

Structure (SMILES): CCCCn1c(Cc2cc(OC)c(OC)c(OC)c2)nc2c(N)ncnc21 [PU3]
- times weaker Hsp90 inhibitor than 17AAG [1]: 30

Structure (SMILES): COC1=C2C[C@@H](C)C[C@H](OC)[C@H](O)[C@@H](C)/C=C(\C)[C@H](OC(N)=O)[C@@H](OC)/C=C\C=C(/C)C(=O)NC(=CC1=O)C2=O [GM, geldanamycin]
- IC50 [2, 5]: 0.017 µM

Structure (SMILES): CCNC(=O)[C@H]1O[C@@H](n2cnc3c(N)ncnc32)[C@H](O)[C@@H]1O [NECA]
- Inhibition of cytosolic Hsp90 b (FIG. 13A) [4]: does not inhibit

More lines, main results first:

- IC50 [2, 5]: 0.028 µM
Structure (SMILES): C[C@@H]1C[C@H]2O[C@@H]2/C=C\C=C\C(=O)Cc2c(Cl)c(O)cc(O)c2C(=O)O1 [RD, radicicol]

- IC50 ([2]; several plates at different time periods, read-out: IC50s in separate readings of the Her2-blot): 4 µM and 4.18 µM and 4.54 µM
Structure (SMILES): C#CCCCn1c(Cc2cc(OC)c(OC)c(OC)c2Cl)nc2c(N)nc(F)nc21 [PU24FCl]
- Binding affinity for tumor versus normal tissue Hsp90 [3]: difference in binding affinity

Source: patent publication US20070178537A1, “Assays for detection of bioactive compounds that interact with heat shock protein 90” (Sloan-Kettering Institute for Cancer Research, priority 2003, published 2007)
